ChEMBL document CHEMBL1137536, “Dipeptidyl aspartyl fluoromethylketones as potent caspase inhibitors: peptidomimetic replacement of the P(2) amino acid by 2-aminoaryl acids and other non-natural amino acids” (Bioorg Med Chem Lett, 2007)
Each block holds one compound with its values, some of them ahead of it.

Assays:
Caspase-7 = target: T1, Caspase-7 (Homo sapiens, UniProt P55210); experiment: Inhibition of human caspase 7
T1 sequence (P55210 whole entry): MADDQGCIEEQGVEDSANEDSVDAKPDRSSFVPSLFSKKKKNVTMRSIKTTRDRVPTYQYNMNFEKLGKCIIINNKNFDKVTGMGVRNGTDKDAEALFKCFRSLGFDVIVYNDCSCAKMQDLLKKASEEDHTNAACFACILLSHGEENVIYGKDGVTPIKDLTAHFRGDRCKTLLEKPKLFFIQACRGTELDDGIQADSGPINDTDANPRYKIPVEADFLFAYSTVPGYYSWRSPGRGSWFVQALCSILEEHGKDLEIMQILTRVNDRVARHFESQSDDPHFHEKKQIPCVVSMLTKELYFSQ

Caspase-1 = target: T2, Caspase-1 (Homo sapiens, UniProt P29466); experiment: Inhibition of human caspase 1
T2 sequence (P29466 whole entry): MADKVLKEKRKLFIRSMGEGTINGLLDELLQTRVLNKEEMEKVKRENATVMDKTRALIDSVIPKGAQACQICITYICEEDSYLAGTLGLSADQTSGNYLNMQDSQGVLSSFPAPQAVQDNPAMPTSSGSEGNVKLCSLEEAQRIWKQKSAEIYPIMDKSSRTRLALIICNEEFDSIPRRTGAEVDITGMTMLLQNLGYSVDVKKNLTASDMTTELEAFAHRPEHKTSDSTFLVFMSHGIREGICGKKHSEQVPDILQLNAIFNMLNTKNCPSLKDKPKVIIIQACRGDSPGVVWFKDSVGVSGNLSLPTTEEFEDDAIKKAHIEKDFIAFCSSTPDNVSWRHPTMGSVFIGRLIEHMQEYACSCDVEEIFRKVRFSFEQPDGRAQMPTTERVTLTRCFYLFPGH

Caspase-6 = target: T3, Caspase-6 (Homo sapiens, UniProt P55212); experiment: Inhibition of human caspase 6
T3 sequence (P55212 whole entry): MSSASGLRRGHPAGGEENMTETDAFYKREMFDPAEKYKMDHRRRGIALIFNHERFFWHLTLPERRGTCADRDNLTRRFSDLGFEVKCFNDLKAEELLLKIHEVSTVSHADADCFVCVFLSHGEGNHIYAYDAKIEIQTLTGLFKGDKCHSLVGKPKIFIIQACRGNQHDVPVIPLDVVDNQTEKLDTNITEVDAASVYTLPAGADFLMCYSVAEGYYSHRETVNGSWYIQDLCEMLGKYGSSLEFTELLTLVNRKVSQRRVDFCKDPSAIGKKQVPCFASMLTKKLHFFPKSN

Caspase-3 = target: T4, Caspase-3 (Homo sapiens, UniProt P42574); experiment: Inhibition of human recombinant caspase 3 by fluorometric assay
T4 sequence (P42574 whole entry): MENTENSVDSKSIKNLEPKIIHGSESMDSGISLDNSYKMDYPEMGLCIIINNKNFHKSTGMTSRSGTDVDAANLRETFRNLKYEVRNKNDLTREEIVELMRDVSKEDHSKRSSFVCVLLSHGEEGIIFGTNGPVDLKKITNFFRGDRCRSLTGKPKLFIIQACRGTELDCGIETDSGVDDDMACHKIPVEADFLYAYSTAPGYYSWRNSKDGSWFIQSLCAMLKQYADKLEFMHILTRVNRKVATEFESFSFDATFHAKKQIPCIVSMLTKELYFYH

Caspase-8 = Caspase-8 (Homo sapiens, UniProt Q14790); experiment: Inhibition of human caspase 8
Caspase-9 = target: T5, Caspase-9 (Homo sapiens, UniProt P55211); experiment: Inhibition of human caspase 9
T5 sequence (P55211 whole entry): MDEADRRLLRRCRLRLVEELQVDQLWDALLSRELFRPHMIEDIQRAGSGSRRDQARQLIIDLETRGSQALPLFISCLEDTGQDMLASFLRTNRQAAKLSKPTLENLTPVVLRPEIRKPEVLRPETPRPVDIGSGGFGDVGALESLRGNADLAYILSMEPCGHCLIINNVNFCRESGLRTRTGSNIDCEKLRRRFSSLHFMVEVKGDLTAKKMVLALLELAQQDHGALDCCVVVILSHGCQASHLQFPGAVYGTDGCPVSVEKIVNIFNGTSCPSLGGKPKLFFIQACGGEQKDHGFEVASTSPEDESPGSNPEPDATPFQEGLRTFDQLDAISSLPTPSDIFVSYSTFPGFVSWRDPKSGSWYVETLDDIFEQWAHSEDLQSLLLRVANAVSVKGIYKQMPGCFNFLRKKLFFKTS

HeLa = experiment: Inhibition of TNF-alpha-induced apoptosis in HeLa cells assessed as cell protection; conditions: Homo sapiens

Chain of Caspase-8 (Q14790 217-374 limits assumed): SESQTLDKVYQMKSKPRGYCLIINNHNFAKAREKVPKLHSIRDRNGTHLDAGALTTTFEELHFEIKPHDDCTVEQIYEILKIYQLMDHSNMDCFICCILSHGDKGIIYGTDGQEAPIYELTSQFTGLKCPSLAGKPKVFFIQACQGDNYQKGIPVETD
Chain of Caspase-8 (Q14790 385-479 limits assumed): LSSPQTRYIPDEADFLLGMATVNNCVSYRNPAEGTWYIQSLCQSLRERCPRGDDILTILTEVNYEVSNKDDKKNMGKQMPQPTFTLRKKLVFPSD

Structure (SMILES): O=C(O)CN(C(=O)CF)C(=O)[C@H]1CCCN1C(=O)OCc1ccccc1
IC50 (HeLa): > 2000 nM

Structure (SMILES): O=C(O)CN(C(=O)CF)C(=O)[C@H]1CCN1C(=O)OCc1ccccc1
IC50 (HeLa): 1700 nM

Other lines, results leading:

IC50 (Caspase-7): 11 nM
IC50 (Caspase-1): 12 nM
IC50 (Caspase-6): 61 nM
IC50 (Caspase-3): 33 nM
IC50 (Caspase-8): 6 nM
IC50 (Caspase-9): 6 nM
Structure (SMILES): CC(C)[C@H](NC(=O)OCc1ccccc1)C(=O)Nc1ccccc1C(=O)NC(CC(=O)O)C(=O)CF (stereo not given in full)

IC50 (HeLa): > 2000 nM
Structure (SMILES): O=C(O)CC(NC(=O)c1sccc1NC(=O)OCc1ccccc1)C(=O)CF (stereo not given)

IC50 (HeLa): 4000 nM
Structure (SMILES): O=C(O)CC(NC(=O)c1ccccc1NC(=O)OCc1ccccc1)C(=O)CF (stereo not given)
